Values of other authors in article PMC7904743, “WIDOCK: a reactive docking protocol for virtual screening of covalent inhibitors” (Journal of Computer-Aided Molecular Design, 2021).
Like-named read-outs stand apart in the source and are kept apart here.

Key:
[1] = system: NUDT7; settings: protein labeling at 200 μM; experimental actives if % labeling higher than 50%; cited from earlier work
[2] = thiol reactivity, cited from earlier work
[3] = system: OTUB2; settings: experimental actives if % labeling higher than 50%, cited from earlier work
[4] = natural log of average rate constant k
[5] = natural logarithm of average rate constant
[6] = natural log of average kinetic rate constant
[7] = natural log of average rate constant

Row | Structure (SMILES) | NUDT7 % labeling [1] | ln(avg k) [2, 4] | ln(avg k) [2, 5] | OTUB2 % labeling [3] | ln(avg k) [2, 6] | ln(avg k) [2, 7] | OTUB2 % labeling ([3]; OTUB2 protein labeling)
1 | CC1(NC(=O)CCl)CCS(=O)(=O)C1 (stereo not drawn) [PCM-0102230, CC1(NC(=O)CCl)CCS(=O)(=O)C1] | 0% | -16.090 | -16.090 | 0% | – | – | –
2 | O=C(CCl)N1CCN(C(=O)Nc2ccccc2)CC1 [PCM-0102257, O=C(CCl)N1CCN(C(=O)Nc2ccccc2)CC1] | 7% | -15.051 | -15.051 | 0% | – | – | –
3 | Cc1ccc2nc(NC(=O)CCl)sc2c1 [PCM-0103031, Cc1ccc2nc(NC(=O)CCl)sc2c1] | 88% | – | – | – | -15.473 | -15.473 | 18%
4 | O=C(CCl)Nc1ccc(F)cc1Cl [PCM-0103040, O=C(CCl)Nc1ccc(F)cc1Cl] | 0% | – | – | – | -16.348 | -16.348 | 0%
5 | O=C(CCl)NC1CCCC1 [PCM-0102250, O=C(CCl)NC1CCCC1] | 0% | -16.419 | -16.419 | 0% | – | – | –
6 | O=C(CCl)NC(=O)OCc1ccccc1 [PCM-0102153, O=C(CCl)NC(=O)OCc1ccccc1] | 0% | -16.245 | -16.245 | 79% | – | – | –
7 | CN(Cc1ccc2c(c1)OCCO2)C(=O)CCl [PCM-0102958, CN(Cc1ccc2c(c1)OCCO2)C(=O)CCl] | 27% | – | – | – | -16.177 | -16.177 | 9%
8 | N#Cc1oc2ccccc2c1NC(=O)CCl [PCM-0102252, N#Cc1oc2ccccc2c1NC(=O)CCl] | 37% | -15.605 | -15.605 | 86% | – | – | –
9 | COC(=O)C1(NC(=O)CCl)CCCCC1 [PCM-0102734, COC(=O)C1(NC(=O)CCl)CCCCC1] | 0% | – | -16.826 | 0% | – | -16.826 | –
10 | CN(C(=O)CCl)C1(C#N)CCCCC1 [PCM-0102916, CN(C(=O)CCl)C1(C#N)CCCCC1] | 0% | – | – | – | -15.114 | -15.114 | 0%
11 | O=C(CCl)Nc1nc(-c2cccs2)cs1 [PCM-0102784, O=C(CCl)Nc1nc(-c2cccs2)cs1] | 77% | – | – | – | -16.029 | -16.029 | 7%
12 | O=C(CCl)N1CCN(C(=O)c2cccs2)CC1 [PCM-0102306, O=C(CCl)N1CCN(C(=O)c2cccs2)CC1] | 0% | -15.421 | -15.421 | 0% | – | – | –
13 | O=C(CCl)N1CCN(S(=O)(=O)c2c(F)cccc2F)CC1 [PCM-0102201, O=C(CCl)N1CCN(S(=O)(=O)c2c(F)cccc2F)CC1] | 0% | -15.250 | -15.250 | 0% | – | – | –
14 | COc1ccc(Cl)cc1C(=O)NNC(=O)CCl [PCM-0102763, COc1ccc(Cl)cc1C(=O)NNC(=O)CCl] | 10% | – | – | – | -16.746 | -16.746 | 64%
15 | O=C(CCl)N1CCC2(CC1)OCCO2 [PCM-0102823, O=C(CCl)N1CCC2(CC1)OCCO2] | 0% | – | – | – | -16.068 | -16.068 | 0%
16 | C=CC(=O)NC(=O)Nc1ccccc1 [PCM-0102883, C=CC(=O)NC(=O)Nc1ccccc1] | 0% | – | – | – | -16.619 | -16.619 | 0%
17 | NC(=O)C1CCCN(C(=O)CCl)C1 (stereo not drawn) [PCM-0102495, NC(=O)C1CCCN(C(=O)CCl)C1] | 0% | -15.454 | -15.454 | 0% | – | – | –
18 | O=C(CCl)N1CCN(Cc2ccc3c(c2)OCCO3)CC1 [PCM-0102386, O=C(CCl)N1CCN(Cc2ccc3c(c2)OCCO3)CC1] | 0% | -15.669 | -15.669 | 0% | – | – | –
19 | CCOC(=O)N1CCN(C(=O)CCl)CC1 [PCM-0102861, CCOC(=O)N1CCN(C(=O)CCl)CC1] | 0% | – | – | – | -17.162 | -17.162 | 0%
20 | Cc1ccc(NC(=O)CCl)cc1I [PCM-0102577, Cc1ccc(NC(=O)CCl)cc1I] | 34% | -15.945 | -15.945 | 80% | – | – | –
21 | CC(C)N1CCC(NC(=O)CCl)CC1 [PCM-0102748, CC(C)N1CCC(NC(=O)CCl)CC1] | 0% | – | – | – | -15.792 | -15.792 | 0%

Row | Structure (SMILES) | NUDT7 % labeling [1] | ln(avg k) [2, 4] | ln(avg k) [2, 5] | OTUB2 % labeling [3] | ln(avg k) [2, 6] | ln(avg k) [2, 7] | OTUB2 % labeling ([3]; OTUB2 protein labeling)
22 | O=C(CCl)NC1C2CC3CC(C2)CC1C3 (stereo not drawn) [PCM-0102404, O=C(CCl)NC1C2CC3CC(C2)CC1C3] | 0% | -16.228 | -16.228 | 33% | – | – | –
23 | O=C1CN(C(=O)CCl)c2ccccc2N1 [PCM-0102362, O=C1CN(C(=O)CCl)c2ccccc2N1] | 0% | -15.567 | -15.567 | 0% | – | – | –
24 | CC(C)N(C(=O)CCl)C1CCCCC1 [PCM-0102941, CC(C)N(C(=O)CCl)C1CCCCC1] | 17% | – | – | – | -16.528 | -16.528 | 0%
25 | Cc1nc(-c2ccc(C)c(NC(=O)CCl)c2)n[nH]1 [PCM-0103052, Cc1nc(-c2ccc(C)c(NC(=O)CCl)c2)n[nH]1] | 12% | – | – | – | -16.586 | -16.586 | 9%
26 | CC1CCN(C(=O)CCl)c2ccccc2S1 (stereo not drawn) [PCM-0102216, CC1CCN(C(=O)CCl)c2ccccc2S1] | 32% | -16.224 | -16.224 | 0% | – | – | –
27 | Cc1ccc(CN(C)C(=O)CCl)o1 [PCM-0102399, Cc1ccc(CN(C)C(=O)CCl)o1] | 5% | -15.728 | -15.728 | 0% | – | – | –
28 | CC(C)(C)n1ncc2c1CCCC2NC(=O)CCl (stereo not drawn) [PCM-0103046, CC(C)(C)n1ncc2c1CCCC2NC(=O)CCl] | 0% | – | – | – | -16.467 | -16.467 | 36%
29 | CNC(=O)C1CCN(C(=O)CCl)CC1 [PCM-0102815, CNC(=O)C1CCN(C(=O)CCl)CC1] | 0% | – | – | – | -15.403 | -15.403 | 8%
30 | CC(=O)c1cc2c(cc1NC(=O)CCl)OCO2 [PCM-0103010, CC(=O)c1cc2c(cc1NC(=O)CCl)OCO2] | 14% | – | – | – | -17.333 | -17.333 | 0%
31 | CS(=O)(=O)c1ccc(NC(=O)CCl)cc1 [PCM-0102335, CS(=O)(=O)c1ccc(NC(=O)CCl)cc1] | 6% | -15.005 | -15.005 | 30% | – | – | –
32 | O=C(CCl)NCC1CCCc2ccccc21 (stereo not drawn) [PCM-0102794, O=C(CCl)NCC1CCCc2ccccc21] | 0% | – | – | – | -16.479 | -16.479 | 34%
33 | CN(Cc1cccc(F)c1)C(=O)CCl [PCM-0102747, CN(Cc1cccc(F)c1)C(=O)CCl] | 0% | – | – | – | -16.175 | -16.175 | 0%
34 | N#Cc1ccc(NC(=O)CCl)cc1 [PCM-0102875, N#Cc1ccc(NC(=O)CCl)cc1] | 14% | – | – | – | -15.678 | -15.678 | 8%
35 | O=C(CCl)Nc1ccc(N2CCCCC2)cc1 [PCM-0102612, O=C(CCl)Nc1ccc(N2CCCCC2)cc1] | 0% | -16.206 | -16.206 | 37% | – | – | –
36 | O=C(CCl)N1CCc2sccc2C1c1ccccc1 (stereo not drawn) [PCM-0103024, O=C(CCl)N1CCc2sccc2C1c1ccccc1] | 69% | – | – | – | -15.442 | -15.442 | 0%
37 | CCN(C(=O)CCl)C1CC1 [PCM-0102594, CCN(C(=O)CCl)C1CC1] | 0% | -17.070 | -17.070 | 0% | – | – | –
38 | CN(CC12CC3CC(CC(C3)C1)C2)C(=O)CCl [PCM-0102942, CN(CC12CC3CC(CC(C3)C1)C2)C(=O)CCl] | 26% | – | – | – | -15.698 | -15.698 | 10%
39 | CCc1ccccc1NC(=O)CCl [PCM-0102369, CCc1ccccc1NC(=O)CCl] | 0% | -16.517 | -16.517 | 0% | – | – | –
40 | O=C(CCl)Nc1cc([N+](=O)[O-])ccc1Cl [PCM-0102366, O=C(CCl)Nc1cc([N+](=O)[O-])ccc1Cl] | 20% | -15.888 | -15.888 | 27% | – | – | –
41 | NC(=O)C1CN(C(=O)CCl)c2ccccc2O1 (stereo not drawn) [PCM-0102245, NC(=O)C1CN(C(=O)CCl)c2ccccc2O1] | 12% | -15.513 | -15.513 | 15% | – | – | –
42 | CC(C)(C)c1nnc(NC(=O)CCl)s1 [PCM-0102736, CC(C)(C)c1nnc(NC(=O)CCl)s1] | 0% | – | – | – | -15.861 | -15.861 | 0%
